Here are results for seven molecules from the Kinase Knowledgebase extract (Sharma et al. 2016).

One assay deals with MAPK14 (human) (UniProt Q16539). Kind of assay: Inhibition of LPS-Induced TNF-alpha Production in Human Peripheral Blood Mononuclear Cell. As to conditions: pbmc.
In a further assay the target is MAPK14 (UniProt Q16539). Kind of assay: Inhibition of MAPK14 Kinase Activity.
The subject of the next assay is MAPK14 (mice). Kind of assay: Inhibition of LPS-Induced TNF-alpha Production in Mice. The conditions noted are these: dose or concentration not given here.

Chain of MAPK14 (human) (Q16539 whole entry, looked up): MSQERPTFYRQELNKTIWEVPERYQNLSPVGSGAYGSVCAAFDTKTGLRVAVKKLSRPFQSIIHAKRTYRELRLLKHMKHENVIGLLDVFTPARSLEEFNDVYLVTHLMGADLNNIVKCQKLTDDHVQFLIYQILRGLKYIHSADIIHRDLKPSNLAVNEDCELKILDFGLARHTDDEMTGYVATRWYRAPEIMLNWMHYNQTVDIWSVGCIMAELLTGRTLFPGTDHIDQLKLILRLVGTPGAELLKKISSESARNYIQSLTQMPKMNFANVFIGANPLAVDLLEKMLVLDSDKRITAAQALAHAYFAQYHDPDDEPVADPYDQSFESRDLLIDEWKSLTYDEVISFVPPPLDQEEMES
Chain of MAPK14 (Q16539 whole entry, looked up): as above

Regarding `Fc1ccc(-c2[nH]c3ccc4[nH]c(Cc5ccccc5)nc4c3c2-c2ccncc2)cc1`, the IC50 – broadly, the point on the concentration scale where inhibition reaches its midpoint – at MAPK14 (human) stood at 60 nM.
On the same count and under the same terms, the figure for `Nc1ccn2c(-c3ccnc(N[C@H]4CCCc5ccccc54)c3)c(-c3ccccc3)nc2n1` is 3 nM.
Still for that read-out and setting: in the case of `C[C@@H](Nc1nccc(-c2c(-c3ccccc3)nc3nc(N)ccn23)n1)c1ccccc1` it was 2.3 nM.
Take `C[C@H](Nc1cc(-c2c(-c3ccc(F)cc3)nc3nc(N)ccn23)ccn1)c1ccccc1`: the results for the IC50 at MAPK14 (human) and against MAPK14 were 2 nM and 1 nM, respectively.
For `COC[C@H](C)Nc1cc(-c2c(-c3ccccc3)nc3nc(N)ccn23)ccn1`, at MAPK14 (human), the IC50 is 0.5 nM.
With `C[C@H](Nc1nccc(-c2c(-c3ccccc3)nc3nc(N)ccn23)n1)c1ccccc1`, the inhibition (as a rule, the share of the control response that was lost under treatment) in the assay with MAPK14 (mice) is 100%. The IC50 on MAPK14 (human) was found to be 0.6 nM.
In turn, `Nc1ccn2c(-c3ccncc3)c(-c3ccc(F)cc3)nc2n1` registered an IC50 on MAPK14 (human) of 40 nM. This counts as double-digit nanomolar.
